# From patent publication US10294202B2, “Pyrrolidinones as herbicides” (FMC Corporation, priority 2013, dated 2019)
# Where two headings read alike, the source gives them in different places.
# Key:
# velvetleaf = test: Test A pre-/postemergence herbicide test; assay type: in vivo, Abutilon theophrasti; conditions: for pest or weed control at 1000 g/ha: Abutilon theophrasti, 240 h, 1000 g ai/ha, read-out: Plant response rating, Velvetleaf
# How it was run: (§1)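 Both application timings used compounds in a non-phytotoxic solvent plus surfactant. Pre-emergence: soil sprayed directly after seeding into loam/sand. Post-emergence: foliage of 2–10 cm seedlings (1–2 leaves) sprayed. Injury rated ~10 days later, 0–100.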
# chickweed = test: Test C postemergence herbicide test; assay type: in vivo, Stellaria media
# How it was run: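 Response is scored visually on a 0–100 scale (100 = complete control) relative to untreated controls, 13 to 15 days after treatment. Plants were sprayed postemergence at the 1- to 4-leaf stage (2 to 18 cm tall) and kept in a greenhouse.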
# barnyardgrass = test: Test C flooded paddy test; assay type: in vivo, Echinochloa crus-galli; conditions: Flood
# How it was run: (§2)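 Visual injury scored against controls after 13 to 15 days in the greenhouse, using 0 (no effect) to 100 (complete control). Test compounds went straight into paddy water held 3 cm above the soil surface on 2-leaf-stage plants, with that flood depth maintained for the whole test.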
# sedge, umbrella = test: Test C flooded paddy test; assay type: in vivo, Cyperus difformis; conditions: Flood
# How it was run: as §2
# morningglory = test: Test A pre-/postemergence herbicide test; assay type: in vivo, Ipomoea spp.; conditions: for pest or weed control at 1000 g/ha: Ipomoea, 240 h, 1000 g ai/ha, read-out: Plant response rating, Morningglory
# How it was run: as §1
# rice = test: Test C flooded paddy test; assay type: in vivo, Oryza sativa; conditions: Flood
# How it was run: as §2
# crabgrass, large = test: Test A pre-/postemergence herbicide test; assay type: in vivo, Digitaria sanguinalis; conditions: for pest or weed control at 1000 g/ha: Digitaria sanguinalis, 240 h, 1000 g ai/ha, read-out: Plant response rating, Crabgrass, Large
# How it was run: as §1
# [1] = post-emergence, Postemergence, 0 to 100 scale (0 no effect, 100 complete control)
# [2] = pre-emergence, Preemergence, visual rating on 0 to 100 scale (0 no effect, 100 complete control), approx. 10 days
# [3] = 62 g ai/ha, scale 0 to 100 (0 no effect, 100 complete control)
# [4] = 125 g ai/ha, scale 0 to 100 (0 no effect, 100 complete control)
# [5] = 250 g ai/ha, scale 0 to 100 (0 no effect, 100 complete control)
# [6] = 31 g ai/ha, scale of 0 to 100 where 0 is no effect and 100 is complete control, 13 to 15 days
# [7] = 62 g ai/ha, scale of 0 to 100 where 0 is no effect and 100 is complete control, 13 to 15 days
# [8] = 125 g ai/ha, scale of 0 to 100 where 0 is no effect and 100 is complete control, 13 to 15 days
# [9] = Postemergence, 125 g ai/ha, 0 to 100 scale, 0 no effect, 100 complete control
# [10] = Postemergence, 500 g ai/ha, 0 to 100 scale (0 no effect, 100 complete control)
# [11] = Preemergence, 125 g ai/ha, visual rating on 0 to 100 scale (0 no effect, 100 complete control)
# [12] = preemergence, 500 g ai/ha, 0 to 100 scale
SMILES,"Plant response rating, Chickweed (chickweed; [3])","Plant response rating, Chickweed (chickweed; [4])","Plant response rating, Chickweed (chickweed; [5])","Plant response rating, Barnyardgrass (barnyardgrass; [6])","Plant response rating, Barnyardgrass (barnyardgrass; [7])","Plant response rating, Barnyardgrass (barnyardgrass; [8])","Plant response rating, Barnyardgrass (barnyardgrass; 250 g ai/ha, scale 0 to 100)","Plant response rating, Sedge, Umbrella (sedge, umbrella; [6])","Plant response rating, Sedge, Umbrella (sedge, umbrella; [7])","Plant response rating, Sedge, Umbrella (sedge, umbrella; [8])","Plant response rating, Sedge, Umbrella (sedge, umbrella; 250 g ai/ha, scale 0 to 100)","Plant response rating, Rice (rice; [6])","Plant response rating, Rice (rice; [7])","Plant response rating, Rice (rice; [8])","Plant response rating, Rice (rice; 250 g ai/ha, scale 0 to 100)",also measured
"O=C1NCC(c2ccc(F)c(F)c2)C1C(=O)Nc1cccc(F)c1F (stereo not shown) [Compound 17, N-(2,3-difluorophenyl)-4-(3,4-difluorophenyl)-2-oxo-3-pyrrolidinecarboxamide]",0,0,10,0,0,20,25,0,0,0,40,0,0,0,0,"pest or weed control at 1000 g/ha (velvetleaf; [1]): 50%; pest or weed control at 1000 g/ha (velvetleaf; [2]): 40%; Plant response rating, Chickweed (chickweed; 31 g ai/ha, scale 0 (no effect) to 100 (complete control)): 0; pest or weed control at 1000 g/ha (morningglory; [1]): 0%; pest or weed control at 1000 g/ha (morningglory; [2]): 30%; pest or weed control at 1000 g/ha (crabgrass, large; [1]): 90%; pest or weed control at 1000 g/ha (crabgrass, large; [2]): 90%"
O=C1NCC(c2ccc(Cl)c(F)c2)C1C(=O)Nc1cccc(F)c1F (stereo not shown) [Compound 52],25,45,60,0,0,0,0,0,40,50,75,10,10,10,15,"Plant response rating, Velvetleaf (velvetleaf; [9]): 0; Plant response rating, Velvetleaf (velvetleaf; [10]): 0; Velvetleaf plant response rating (velvetleaf; [11]): 0; Plant response rating, Velvetleaf (velvetleaf; [12]): 20; Plant response rating, Morningglory (morningglory; [9]): 0; Plant response rating, Morningglory (morningglory; [10]): 0; Morningglory plant response rating (morningglory; [11]): 0; Plant response rating, Morningglory (morningglory; [12]): 0; Plant response rating, Crabgrass, Large (crabgrass, large; [9]): 80; Plant response rating, Crabgrass, Large (crabgrass, large; [10]): 80; Crabgrass, Large plant response rating (crabgrass, large; [11]): 90; Plant response rating, Crabgrass, Large (crabgrass, large; [12]): 90"
